Experimental data published in the supplement of paper PMC13380429.

Assays:
Settings in all cases: 72 h
U2OS [1] = assay: cell viability relative to DMSO; higher = less toxic
Caco-2 [2] = assay: as above
Vero E6 [3] = assay: as above
Calu-3 [4] = assay: as above
HepG2 [5] = assay: as above
U2OS [6] = assay: drug sensitivity score (DSS) for viability; higher = more toxic; extreme values may be limits of the assay
Caco-2 [7] = assay: as above
Vero E6 [8] = assay: as above
Calu-3 [9] = assay: as above
HepG2 [10] = assay: as above
U2OS [11] = assay: relative viability EC50 (midpoint between 100% and the lowest measured viability); higher = less toxic
Caco-2 [12] = assay: as above
Vero E6 [13] = assay: as above
Calu-3 [14] = assay: as above
HepG2 [15] = assay: as above

Structure (SMILES) | cell viability (U2OS [1]; 1 nM) [%] | cell viability (U2OS [1]; 10 nM) [%] | cell viability (U2OS [1]; 100 nM) [%] | cell viability (U2OS [1]; 1000 nM) [%] | cell viability (U2OS [1]; 10000 nM) [%] | cell viability (Caco-2 [2]; 1 nM) [%] | cell viability (Caco-2 [2]; 10 nM) [%] | cell viability (Caco-2 [2]; 100 nM) [%] | cell viability (Caco-2 [2]; 1000 nM) [%] | cell viability (Caco-2 [2]; 10000 nM) [%] | cell viability (Vero E6 [3]; 1 nM) [%] | cell viability (Vero E6 [3]; 10 nM) [%] | cell viability (Vero E6 [3]; 100 nM) [%] | cell viability (Vero E6 [3]; 1000 nM) [%] | cell viability (Vero E6 [3]; 10000 nM) [%] | cell viability (Calu-3 [4]; 1 nM) [%] | cell viability (Calu-3 [4]; 10 nM) [%] | cell viability (Calu-3 [4]; 100 nM) [%] | cell viability (Calu-3 [4]; 1000 nM) [%] | cell viability (Calu-3 [4]; 10000 nM) [%] | cell viability (HepG2 [5]; 1 nM) [%] | cell viability (HepG2 [5]; 10 nM) [%] | cell viability (HepG2 [5]; 100 nM) [%] | cell viability (HepG2 [5]; 1000 nM) [%] | cell viability (HepG2 [5]; 10000 nM) [%] | drug sensitivity score (U2OS [6]) | drug sensitivity score (Caco-2 [7]) | drug sensitivity score (Vero E6 [8]) | drug sensitivity score (Calu-3 [9]) | drug sensitivity score (HepG2 [10]) | relative viability EC50 (U2OS [11]) [µM] | relative viability EC50 (Caco-2 [12]) [µM] | relative viability EC50 (Vero E6 [13]) [µM] | relative viability EC50 (Calu-3 [14]) [µM] | relative viability EC50 (HepG2 [15]) [µM]
Cc1nc(C)c(C)nc1C [chuanxiongzine] | 98.5 | 102 | 98.6 | 101 | 95.7 | 110 | 105 | 95.7 | 112 | 105 | 104 | 97.1 | 104 | 104 | 105 | 105 | 106 | 89.9 | 101 | 84.8 | 105 | 88.9 | 97.1 | 92 | 97.3 | 0 | 0 | 0 | 0.2 | 0 | > 10 | > 10 | > 10 | > 10 | > 10
O=C1CCc2cc(OCCCCc3nnnn3C3CCCCC3)ccc2N1 [cilostazol] | 93.2 | 96.9 | 94 | 96.5 | 95 | 97.5 | 104 | 99.7 | 101 | 90.3 | 91.5 | 99 | 96.9 | 101 | 95.7 | 94.3 | 107 | 99.1 | 115 | 111 | 114 | 99.9 | 110 | 99.4 | 92.6 | 0 | 0 | 0 | 0 | 0 | > 10 | > 10 | > 10 | > 10 | > 10
CCC(CC)(CC(=O)Nc1cccc(/C=C/c2nc(C3CCC3)cs2)c1)C(=O)O [cinalukast] | 102 | 96.7 | 107 | 99.4 | 103 | 99.2 | 97.1 | 102 | 96.9 | 90.7 | 101 | 109 | 101 | 98.2 | 96.6 | 98.9 | 89.9 | 88.1 | 88.4 | 101 | 97.4 | 108 | 106 | 91.9 | 95.7 | 0 | 0 | 0 | 0 | 0 | > 10 | > 10 | > 10 | > 10 | > 10
CN(C)CCCSc1ccccc1NC(=O)/C=C/c1ccccc1 [cinanserin] | 108 | 99.6 | 98.5 | 97.2 | 97.6 | 92.4 | 95 | 94.4 | 97.3 | 102 | 99.4 | 99.9 | 97 | 101 | 87.9 | 108 | 98.6 | 98.1 | 90.7 | 98.9 | 94.3 | 94.1 | 101 | 102 | 85.8 | 0 | 0 | 0 | 0 | 0.1 | > 10 | > 10 | > 10 | > 10 | > 10
COc1cc(/C=C/C(=O)N2CCN(CC(=O)N3CCCC3)CC2)cc(OC)c1OC [cinepazide] | 92.6 | 97.5 | 92.1 | 100 | 95.6 | 96.4 | 105 | 94.9 | 103 | 91.3 | 98.5 | 98.1 | 102 | 100 | 98.6 | 104 | 96 | 95.8 | 94 | 101 | 101 | 96.9 | 90.8 | 98.2 | 96.1 | 0 | 0 | 0 | 0 | 0 | > 10 | > 10 | > 10 | > 10 | > 10
CC(C)(Oc1ccc(Cl)cc1)C(=O)O [clofibric-acid] | 101 | 95.1 | 99.9 | 94.9 | 99.2 | 95.5 | 96.6 | 101 | 99.3 | 99.1 | 102 | 101 | 97.7 | 93.3 | 94.2 | 94.2 | 96.5 | 100 | 92.5 | 96.2 | 93.7 | 106 | 95.6 | 105 | 96.2 | 0 | 0 | 0 | 0 | 0 | > 10 | > 10 | > 10 | > 10 | > 10
Oc1ccc(Cl)c2cccnc12 [cloxyquin] | 94.4 | 99.3 | 99.4 | 99.8 | 97.4 | 96.1 | 98.1 | 104 | 96.9 | 95 | 99.7 | 105 | 99.9 | 101 | 97.7 | 87.9 | 100 | 96 | 106 | 105 | 102 | 98.9 | 116 | 93.4 | 88.2 | 0 | 0 | 0 | 0 | 0.3 | > 10 | > 10 | > 10 | > 10 | > 10
